Results from PubChem BioAssay AID1919017 (Molecular Pharmacology Branch, DTP, NCI, 2023).

System: SW1271 complex spheroids with HUVEC/MSC, growth, % test/control
Assay: Anticancer human tumor SW1271 cell line growth inhibition [AhR];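 also: spheroids exposed to agents for 7 days before readout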
Details: for IC50: curve of first compound; for viability, T/C: stronger effect = lower value
How it was run: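 Spheroids combined tumor cells with HUVEC endothelial cells and human MSCs as stroma. AhR antagonists were paired with standard or investigational drugs, each dosed in half-log steps down from near clinical Cmax, or from 10 microM where Cmax was unknown.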

[1] = second compound 0.1 µM, first compound 0.0316 µM
[2] = second compound 0.1 µM, first compound 0.1 µM
[3] = second compound 0.316 µM, first compound 0.0316 µM
[4] = second compound 0.316 µM, first compound 0.1 µM
[5] = second compound 1 µM, first compound 0.0316 µM
[6] = second compound 1 µM, first compound 0.1 µM
[7] = second compound 3.16 µM, first compound 0.0316 µM
[8] = second compound 3.16 µM, first compound 0.1 µM
[9] = second compound 10 µM, first compound 0.0316 µM
[10] = second compound 10 µM, first compound 0.1 µM

Structure (SMILES): CC1(C)CCC(CN2CCN(c3ccc(C(=O)NS(=O)(=O)c4ccc(NCC5CCOCC5)c([N+](=O)[O-])c4)c(Oc4cnc5[nH]ccc5c4)c3)CC2)=C(c2ccc(Cl)cc2)C1 + Cc1cncc(-c2nc(NCCc3c[nH]c4ccccc34)c3ncn(C(C)C)c3n2)c1
- IC50 (second compound 0.1 µM): > 10 µM
- IC50 (second compound 0.316 µM): > 10 µM
- IC50 (second compound 1 µM): > 10 µM
- IC50 (second compound 3.16 µM): > 10 µM
- IC50 (second compound 10 µM): < 0.0316 µM
- viability, T/C [1]: 101%
- viability, T/C [2]: 92.7%
- viability, T/C (second compound 0.1 µM, first compound 0.316 µM): 101%
- viability, T/C (second compound 0.1 µM, first compound 1 µM): 116%
- viability, T/C (second compound 0.1 µM, first compound 3.16 µM): 131%
- viability, T/C (second compound 0.1 µM, first compound 10 µM): 95.7%
- viability, T/C [3]: 95%
- viability, T/C [4]: 93.3%
- viability, T/C (second compound 0.316 µM, first compound 0.316 µM): 102%
- viability, T/C (second compound 0.316 µM, first compound 1 µM): 88.4%
- viability, T/C (second compound 0.316 µM, first compound 3.16 µM): 101%
- viability, T/C (second compound 0.316 µM, first compound 10 µM): 125%
- viability, T/C [5]: 95.5%
- viability, T/C [6]: 79.8%
- viability, T/C (second compound 1 µM, first compound 0.316 µM): 104%
- viability, T/C (second compound 1 µM, first compound 1 µM): 90.5%
- viability, T/C (second compound 1 µM, first compound 3.16 µM): 111%
- viability, T/C (second compound 1 µM, first compound 10 µM): 102%
- viability, T/C [7]: 120%
- viability, T/C [8]: 98.5%
- viability, T/C (second compound 3.16 µM, first compound 0.316 µM): 102%
- viability, T/C (second compound 3.16 µM, first compound 1 µM): 94.7%
- viability, T/C (second compound 3.16 µM, first compound 3.16 µM): 115%
- viability, T/C (second compound 3.16 µM, first compound 10 µM): 110%
- viability, T/C [9]: 36.9%
- viability, T/C [10]: 46%
- viability, T/C (second compound 10 µM, first compound 0.316 µM): 49.5%
- viability, T/C (second compound 10 µM, first compound 1 µM): 33.6%
- viability, T/C (second compound 10 µM, first compound 3.16 µM): 48.9%
- viability, T/C (second compound 10 µM, first compound 10 µM): 44.9%

Structure (SMILES): CCN(c1cc(-c2ccc(CN3CCOCC3)cc2)cc(C(=O)NCc2c(C)cc(C)[nH]c2=O)c1C)C1CCOCC1 + Cc1cncc(-c2nc(NCCc3c[nH]c4ccccc34)c3ncn(C(C)C)c3n2)c1
- IC50 (second compound 0.1 µM): > 3 µM
- IC50 (second compound 0.316 µM): > 3 µM
- IC50 (second compound 1 µM): > 3 µM
- IC50 (second compound 3.16 µM): > 3 µM
- IC50 (second compound 10 µM): < 0.00949 µM
- viability, T/C (second compound 0.1 µM, first compound 0.00949 µM): 81%
- viability, T/C (second compound 0.1 µM, first compound 0.03 µM): 100%
- viability, T/C (second compound 0.1 µM, first compound 0.0949 µM): 108%
- viability, T/C (second compound 0.1 µM, first compound 0.3 µM): 97.5%
- viability, T/C (second compound 0.1 µM, first compound 0.949 µM): 99.7%
- viability, T/C (second compound 0.1 µM, first compound 3 µM): 118%
- viability, T/C (second compound 0.316 µM, first compound 0.00949 µM): 99%
- viability, T/C (second compound 0.316 µM, first compound 0.03 µM): 105%
- viability, T/C (second compound 0.316 µM, first compound 0.0949 µM): 103%
- viability, T/C (second compound 0.316 µM, first compound 0.3 µM): 124%
- viability, T/C (second compound 0.316 µM, first compound 0.949 µM): 106%
- viability, T/C (second compound 0.316 µM, first compound 3 µM): 115%
- viability, T/C (second compound 1 µM, first compound 0.00949 µM): 94.6%
- viability, T/C (second compound 1 µM, first compound 0.03 µM): 112%
- viability, T/C (second compound 1 µM, first compound 0.0949 µM): 118%
- viability, T/C (second compound 1 µM, first compound 0.3 µM): 94.1%
- viability, T/C (second compound 1 µM, first compound 0.949 µM): 106%
- viability, T/C (second compound 1 µM, first compound 3 µM): 110%
- viability, T/C (second compound 3.16 µM, first compound 0.00949 µM): 101%
- viability, T/C (second compound 3.16 µM, first compound 0.03 µM): 109%
- viability, T/C (second compound 3.16 µM, first compound 0.0949 µM): 97%
- viability, T/C (second compound 3.16 µM, first compound 0.3 µM): 87.9%
- viability, T/C (second compound 3.16 µM, first compound 0.949 µM): 96%
- viability, T/C (second compound 3.16 µM, first compound 3 µM): 91.2%
- viability, T/C (second compound 10 µM, first compound 0.00949 µM): 48.8%
- viability, T/C (second compound 10 µM, first compound 0.03 µM): 46.5%
- viability, T/C (second compound 10 µM, first compound 0.0949 µM): 45.2%
- viability, T/C (second compound 10 µM, first compound 0.3 µM): 38.3%
- viability, T/C (second compound 10 µM, first compound 0.949 µM): 27.5%
- viability, T/C (second compound 10 µM, first compound 3 µM): 6.84%

Structure (SMILES): Cn1ncnc1C1c2n[nH]c(=O)c3cc(F)cc(c23)NC1c1ccc(F)cc1 (stereo not given) + Cc1cncc(-c2nc(NCCc3c[nH]c4ccccc34)c3ncn(C(C)C)c3n2)c1
- IC50 (second compound 0.1 µM): > 0.1 µM
- IC50 (second compound 0.316 µM): > 0.1 µM
- IC50 (second compound 1 µM): > 0.1 µM
- IC50 (second compound 3.16 µM): > 0.1 µM
- IC50 (second compound 10 µM): > 0.1 µM
- viability, T/C (second compound 0.1 µM, first compound 0.000316 µM): 111%
- viability, T/C (second compound 0.1 µM, first compound 0.001 µM): 103%
- viability, T/C (second compound 0.1 µM, first compound 0.00316 µM): 94.4%
- viability, T/C (second compound 0.1 µM, first compound 0.01 µM): 119%
- viability, T/C [1]: 110%
- viability, T/C [2]: 107%
- viability, T/C (second compound 0.316 µM, first compound 0.000316 µM): 96.2%
- viability, T/C (second compound 0.316 µM, first compound 0.001 µM): 90.7%
- viability, T/C (second compound 0.316 µM, first compound 0.00316 µM): 88.6%
- viability, T/C (second compound 0.316 µM, first compound 0.01 µM): 98.2%
- viability, T/C [3]: 77.4%
- viability, T/C [4]: 91%
- viability, T/C (second compound 1 µM, first compound 0.000316 µM): 91.8%
- viability, T/C (second compound 1 µM, first compound 0.001 µM): 103%
- viability, T/C (second compound 1 µM, first compound 0.00316 µM): 92.4%
- viability, T/C (second compound 1 µM, first compound 0.01 µM): 95.8%
- viability, T/C [5]: 94.7%
- viability, T/C [6]: 83.3%
- viability, T/C (second compound 3.16 µM, first compound 0.000316 µM): 103%
- viability, T/C (second compound 3.16 µM, first compound 0.001 µM): 105%
- viability, T/C (second compound 3.16 µM, first compound 0.00316 µM): 88.2%
- viability, T/C (second compound 3.16 µM, first compound 0.01 µM): 92%
- viability, T/C [7]: 98.6%
- viability, T/C [8]: 94.7%
- viability, T/C (second compound 10 µM, first compound 0.000316 µM): 44.9%
- viability, T/C (second compound 10 µM, first compound 0.001 µM): 43.8%
- viability, T/C (second compound 10 µM, first compound 0.00316 µM): 86.5%
- viability, T/C (second compound 10 µM, first compound 0.01 µM): 53.5%
- viability, T/C [9]: 61.3%
- viability, T/C [10]: 40.7%
